Tested on: T-47D cells
Assay: Caspase cascade activation (N-(Ac-DEVD)-N′-ethoxycarbonyl-R110 fluorogenic substrate) in T-47D cells; as to Caspase activity Ratio T-47D (24 hr): test concentration or dose not given here; as to Caspase activity Ratio T-47D (48 hr): test concentration or dose not given here
Type: cell-based, Human
Conditions: T-47D, 24 hr; ratio of net RFU to control

| Compound | Caspase activity Ratio T-47D (24 hr) |
| --- | --- |
| COc1cnc(N(C)c2nc(C)nc3ccccc23)cn1 [Example 126, (5-Methoxy-pyrazin-2-yl)-(2-methyl-quinazolin-4-yl)-methyl-amine] | 7.6 |
| COc1ccc(N(C)c2nc(CCl)nc3ccccc23)cc1 [Example 73, (2-Chloromethyl-quinazolin-4-yl)-(4-methoxy-phenyl)-methyl-amine] | 6.2 |
| COc1ccc(N(c2nc(Cl)nc3ccccc23)C(C)C)cc1 [Example 37, (2-Chloro-quinazolin-4-yl)-isopropyl-(4-methoxy-phenyl)-amine] | 3.3 |
| COc1ccc(N(C)c2nc(N)nc3[nH]cnc23)cc1 [Example 17, N^6-(4-Methoxy-phenyl)-N-6-methyl-9H-purine-2,6-diamine] | 3.0 |
| Cc1nc(N(C)c2ccc(C(=O)ON3C(=O)CCC3=O)cc2)c2ccccc2n1 [Example 119, Succinimidyl 4-(N-Methyl-N-(2-methylquinazolin-4-yl)amino)benzoic Acid Ester] | 11.8 |
| Cc1nc(N(C)c2ccc(C(=O)O)cc2)c2ccccc2n1 [Example 116, 4-(N-Methyl-N-(2-methylquinazolin-4-yl)amino)benzoic Acid] | 1.0 |
| Cc1nc(N(C)c2ccncc2)c2ccccc2n1 [Example 136, (2-Methyl-quinazolin-4-yl)-(pyridin-4-yl)-methyl-amine] | 1.2 |
| [2H]c1c([2H])c(N(C)c2nc(C)nc3ccccc23)c([2H])c([2H])c1OC [Example 108] | 4.8 |
| COc1ccc(N(c2nc(Cl)nc3ccccc23)C2CCCCC2)cc1 [Example 38, (2-Chloro-quinazolin-4-yl)-cyclohexyl-(4-methoxy-phenyl)-amine] | 3.4 |
| COc1ccc(N(C)c2nc(C)nc3ccccc23)c(F)c1 [Example 99, (2-Fluoro-4-methoxy-phenyl)-(2-methyl-quinazolin-4-yl)-methyl-amine] | 6.9 |
| Cc1nc(N(C)c2cnccn2)c2ccccc2n1 [Example 134, (2-Methyl-quinazolin-4-yl)-(pyrazin-2-yl)-methyl-amine] | 1.2 |
| COc1ccc(Nc2nc(C)nc3ccccc23)nc1 [Example 137, (5-Methoxy-pyridin-2-yl)-(2-methyl-quinazolin-4-yl)-amine] | 1.2 |
| COc1cc(OC)c(Nc2nc(C)nc3ccccc23)c(OC)c1 [Example 82, (2-Methyl-quinazolin-4-yl)-(2,4,6-trimethoxy-phenyl)-amine] | 1.0 |
| COc1ccc(N(C)c2nc(C)nc3cc(N=[N+]=[N-])ccc23)cc1 [Example 114, (7-Azido-2-methyl-quinazolin-4-yl)-(4-methoxy-phenyl)-methyl-amine] | 7.2 |
| CCOc1ccc(Nc2nc(C)nc3ccccc23)cc1 [Example 106, (4-Ethoxy-phenyl)-(2-methyl-quinazolin-4-yl)-amine] | 1.1 |
| COc1ccc(N(C)c2nc(C)nc3ncccc23)cc1 [Example 92, (4-Methoxy-phenyl)-(2-methyl-pyrido[2,3-d]pyrimidin-4-yl)-methyl-amine] | 10.1 |
| Cc1nc(N(C)c2ccc([N+](=O)[O-])cc2)c2ccccc2n1 [Example 100, (2-Methyl-quinazolin-4-yl)-(4-nitro-phenyl)-methyl-amine] | 8.9 |
| Cc1ccc(Nc2nc(Cl)nc3ccccc23)cc1 [Example 8, (2-Chloro-quinazolin-4-yl)-(4-methyl-phenyl)-amine] | 1.0 |

| Compound | Caspase activity Ratio T-47D (24 hr) |
| --- | --- |
| COc1ccc(N(C)c2nc(N3CCOCC3)nc3ccccc23)cc1 [Example 15] | 5.7 |
| COc1cc2nc(Cl)nc(N(C)c3ccc(C)cc3)c2cc1OC [Example 22, (2-Chloro-6,7-dimethoxyquinazolin-4-yl)-(4-methyl-phenyl)-methyl-amine] | 1.0 |
| COc1cc(OC)c(N(C)c2nc(C)nc3ccccc23)c(OC)c1 [Example 88, (2-Methyl-quinazolin-4-yl)-(2,4,6-trimethoxy-phenyl)-methyl-amine] | 7.6 |
| CN(c1ccc(Cl)cc1)c1nc(Cl)nc2ccccc12 [Example 3, (2-Chloro-quinazolin-4-yl)-(4-chloro-phenyl)-methyl-amine] | 8.1 |
| COc1ccc(N(C)c2nc(SC)nc3ccccc23)cc1 [Example 120, (2-Methylthio-quinazolin-4-yl)-(4-methoxy-phenyl)-methyl-amine] | 5.2 |
| COc1ccc(Nc2nc(C)nc3ccccc23)c(F)c1 [Example 96, (2-Fluoro-4-methoxy-phenyl)-(2-methyl-quinazolin-4-yl)-amine] | 1.0 |
| COc1ccc(N(C)c2nc(C)nc3ccccc23)nn1 [Example 125, (6-Methoxy-pyridazin-3-yl)-(2-methyl-quinazolin-4-yl)-methyl-amine] | 8.3 |
| CCOc1ccc(N(C)c2nc(C)nc3ccccc23)cc1 [Example 107, (4-Ethoxy-phenyl)-(2-methyl-quinazolin-4-yl)-methyl-amine] | 5.2 |
| COc1ccc(N(C)c2nc(Cl)nc3cccc(Cl)c23)cc1 [Example 90, (2,5-Dichloro-quinazolin-4-yl)-(4-methoxy-phenyl)-methyl-amine] | 10.6 |
| CN(c1ccc([N+](=O)[O-])cc1)c1nc(Cl)nc2ccccc12 [Example 4, (2-Chloro-quinazolin-4-yl)-(4-nitro-phenyl)-methyl-amine] | 7.1 |
| COc1ccc(N(C)c2nc(N)nc3ccccc23)cn1 [Example 49, N^4-(6-methoxypyridin-3-yl)-N^4-methyl-quinazoline-2,4-diamine] | 7.5 |
| COc1ccc(N(C)c2nc(N(C)C)nc3ccccc23)cn1 [Example 128, (2-Dimethylamino-quinazolin-4-yl)-(6-methoxy-pyridin-3-yl)-methyl-amine] | 10 |
| COc1ccc(N(C)c2nc(C)nc3cccc(OC)c23)cc1 [Example 91, (5-Methoxy-2-methyl-quinazolin-4-yl)-(4-methoxy-phenyl)-methyl-amine] | 8.3 |
| COc1ccc(N(C)c2nc(C)nc3nccnc23)cc1 [Example 140, (4-Methoxy-phenyl)-(2-methyl-pteridin-4-yl)-methyl-amine] | 7.0 |
| Cc1nc(N(C)c2ccc(OC(F)F)cc2)c2ccccc2n1 [Example 84, (4-Difluoromethoxy-phenyl)-(2-methyl-quinazolin-4-yl)-methyl-amine] | 6.7 |
| COc1ccc(N(C)c2nc(C)nc3ccc([N+](=O)[O-])cc23)cc1 [Example 109, (4-Methoxy-phenyl)-(2-methyl-6-nitro-quinazolin-4-yl)-methyl-amine] | 4.6 |
| COc1ccc(N(C)c2nc(CO)nc3ccccc23)cc1 [Example 76] | 5.6 |

Same assay, conditions: T-47D, 48 hr; benzohydrazide analogs table

| Compound | Ratio T-47D (48 hr) |
| --- | --- |
| CSc1nc(N(C)NC(=O)c2ccc(F)cc2)c2ccccc2n1 [4-fluoro-N′-methyl-N′-(2-(methylthio)quinazolin-4-yl)benzohydrazide] | 13.8 |
| CSc1nc(N(C)NC(=O)c2ccccc2)c2ccccc2n1 [N′-methyl-N′-(2-(methylthio)quinazolin-4-yl)benzohydrazide] | 14.7 |

Same assay, conditions: T-47D, 48 hr; ratio of net RFU to control

| Compound | Caspase activity Ratio T-47D (48 hr) |
| --- | --- |
| COc1ccc(N(C)c2nc(Cl)nc3ccccc23)cc1OC [Example 68, (2-Chloro-quinazolin-4-yl)-(3,4-dimethoxy-phenyl)-methyl-amine] | 13.1 |
| COc1ccc(N(C)c2nc(CCl)nc3ccccc23)cc1 [Example 73, (2-Chloromethyl-quinazolin-4-yl)-(4-methoxy-phenyl)-methyl-amine] | 5.7 |
| CN(c1ccc2c(c1)OCO2)c1nc(Cl)nc2ccccc12 [Example 67, (2-Chloro-quinazolin-4-yl)-(3,4-methylenedioxyphenyl)-methyl-amine] | 12.5 |
| COc1ccc(N(C)c2nc(NO)nc3ccccc23)cc1 [Example 10, N^2-Hydroxyl-N^4-(4-methoxy-phenyl)-N^4-methyl-quinazoline-2,4-diamine] | 12.8 |
| COc1ccc(Oc2ncnc3ccccc23)cc1 [Example 71, 4-(4-Methoxy-phenoxy)-quinazoline] | 6.9 |
| CCN(c1ccc(OC)cc1)c1nc(Cl)nc2ccccc12 [Example 40, (2-Chloro-quinazolin-4-yl)-ethyl-(4-methoxy-phenyl)-amine] | 6.1 |
| COC(=O)c1ccc(N(C)c2nc(Cl)nc3ccccc23)cc1 [Example 52, (2-Chloro-quinazolin-4-yl)-(4-methylcarboxyphenyl)-methyl-amine] | 10.8 |
| COc1ccc(N(C)c2nc(N3CCOCC3)nc3ccccc23)cc1 [Example 15] | 11.5 |
| COc1cccc(Nc2nc(Cl)nc3ccccc23)c1OC [Example 29, (2-Chloro-quinazolin-4-yl)-(2,3-dimethoxy-phenyl)-amine] | 1.0 |
| COc1cc2nc(Cl)nc(N(C)c3ccc(C)cc3)c2cc1OC [Example 22, (2-Chloro-6,7-dimethoxyquinazolin-4-yl)-(4-methyl-phenyl)-methyl-amine] | 1.0 |
| COc1ccc(N(C)c2nc(Cl)nc3[nH]cnc23)cc1 [Example 51, (2-Chloro-9H-purin-6-yl)-(4-methoxy-phenyl)-methyl-amine] | 0.9 |
| CN(c1ccc(Oc2ccccc2)cc1)c1nc(Cl)nc2ccccc12 [Example 69, (2-Chloro-quinazolin-4-yl)-(4-phenoxy-phenyl)-methyl-amine] | 1 |
| COc1ccc(N(C)c2nc(NCCO)nc3cc(OC)c(OC)cc23)cc1 [Example 50, N^2-(2-Hydroxyethyl)-N^4-(4-methoxy-phenyl)-N^4-methyl-6,7-dimethoxyquinazoline-2,4-diamine] | 1.0 |
| COc1ccc(N(C)c2nc(N)nc3ccccc23)cn1 [Example 49, N^4-(6-methoxypyridin-3-yl)-N^4-methyl-quinazoline-2,4-diamine] | 13.4 |
| COc1ccc(N(C)c2nc(CO)nc3ccccc23)cc1 [Example 76] | 14.1 |
| COc1ccc(N(C)c2nc(NCCO)nc3ccccc23)cn1 [Example 48, N^2-(2-Hydroxyethyl)-N^4-(6-methoxypyridin-3-yl)-N^4-methyl-quinazoline-2,4-diamine] | 12.5 |

Reference: US7618975B2, “4-arylamino-quinazolines and analogs as activators of caspases and inducers of apoptosis and the use thereof” (Myriad Pharmaceuticals, Inc., priority 2003, dated 2009)
